Test results published in patent US20170370933A1, “METHODS AND COMPOSITIONS FOR IMMUNOMODULATION” (Nodality, Inc., priority 2013, published 2017).
“Also recorded” adds a separate entry of the source.

Key:
[1] = test system: p-STAT1, p-STAT3, p-STAT5 in whole blood cell subsets; test: SCNP of cytokine-induced JAK/STAT signaling in whole blood of healthy donors; format: cell-based, human
Method: Method: Whole blood from 11 healthy donors (20-65 yrs, 7 males, 4 females, 8 Caucasians, 2 Hispanics, 1 East Asian) was stimulated at 37° C. in 96-well plates with a low, medium, and high dose of GM-CSF, IFN-α, IL-27 and IL-6, each added separately, as described in Example 5. For each dose, a stimulation time course was run with 6 time points between 3 and 45 minutes. […] The SCNP assay was performed using a fluorophore-labeled antibody cocktail to simultaneously measure signaling in six distinct cell populations, including: neutrophils, CD20+ B cells, CD3+CD4+ T cells, CD3+CD4− T cells (CD8 enriched), CD3−CD20− lymphocytes (NK cell enriched), and CD14+ monocytes. The median fluorescent intensity of phospho (p)-STAT1(Y701), p-STAT3(Y705), and p-STAT5(Y694) were measured in each defined cell population for each experimental condition.
Kinetic response to varying concentrations of modulators was investigated in normal samples (i.e. samples from persons who have no diagnosis of disease). 11 normal samples were donated with informed consent by Nodality Inc. employees and processed at Nodality Inc. in South San Francisco, Calif. The samples were treated with 4 different modulators (GM-CSF, IL-27, IFNa and IL-6) at 4 different concentrations of the modulator and activation levels of pStat1, pStat3 and pStat5 were measured at different time points. Activation levels were measured at 3, 5, 10, 15, 30 and 45 minutes using flow cytometry-based single cell network profiling. The concentrations of the stimulators are tabulated below:
Activation levels of different cell surface markers were also profiled using single cell network profiling and used in conjunction with gating to segregate the cells into discrete cell populations. In the gating analysis, SSC-A and FSC-A were first used to segregate lymphocytes from non-lymphocytes. CD14 and CD4 were then used to segregate the non-lymphocytes into populations of neutrophils and CD14+ cells (monocytes). CD3 and CD20 were then used to segregate the lymphocytes into populations of CD20+(B Cells), CD3+(T Cells) and CD20-CD3-cells. CD4 was used to segregate the CD3+ T cells into populations of CD3+CD4- and CD3+CD4+ T cells.

[2] = test system: p-Stat1, p-Stat3, p-Stat4, p-Stat5, p-Stat6, p-p38 in PBMC subsets; test: SCNP of IFN-α signaling in PBMC from healthy donors; format: cell-based, human
Method: Methods: IFN-α-mediated signaling responses were measured by SCNP in PBMC samples from 12 healthy donors. PBMCs were processed for flow cytometry by fixation and permeabilization followed by incubation with fluorochrome-conjugated antibodies that recognize extracellular lineage markers and intracellular signaling molecules. The levels of several phospho-proteins (p-Stat1, p-Stat3, p-Stat4, p-Stat5, p-Stat6, and p-p38) were measured in multiple cell populations (CD14+ monocytes, CD20+ B cells, CD4+CD3+ T cells, and CD4−CD3+ T cells) at 15 minutes, 1, 2 and 4 hours post IFN-α exposure as described in Example 6.

[3] = test system: CTLA-4 interaction with CD80/86 in T cells; test: in vitro T cell activation on αCD3-coated plate with ipilimumab, 48 hr; format: cell-based; conditions: PBMCs on αCD3-coated plate, vs isotype control
Method: In this example, PBMCs were added to a αCD3-coated plate to induce T cell activation, then ipilimumab was added to block CTLA-4 interaction with CD80/86. Isotype control was added to a reference well. The cells were incubated at 37° C. for 48 hr, then fixed, permeabilized, stained, and data acquired as described in the Examples above. Cells were gated by CD3, CD4, and CD8, and the readouts were IL-2, TNF-α, Cyclin A2, and CTLA-4. Ipilimumab augmented CTLA-4 upregulation, cytokine production, and proliferation.

[4] = test system: immune signaling pathways in PBMC subsets; test: SCNP of PBMC from melanoma patients pre- and post-ipilimumab treatment; format: in vivo, human; conditions: for IL-15→p-STAT5 signaling in post-treatment samples: CD4− T cells, vs healthy and untreated donor samples
Method: Methods: 3 healthy and 13 melanoma patient cryopreserved samples, including 7 collected pre-treatment, and 6 collected post-treatment, were analyzed by SCNP. […] Cells were assessed for viability, cell subset frequencies and signaling in response to different modulators. A node is defined as combination of modulator and intracellular readout (e.g. IL-6→p-STAT3). Cytokine and TCR- or Fc[…]R-induced activation of STAT1, 3, 5, CD3 □ and Erk was evaluated in multiple immune cell populations and comparisons made based on disease, treatment time point and clinical responses.

metastatic melanoma = conditions: ipilimumab alone compared to gp100 vaccine alone; previously treated metastatic melanoma; p=0.003; cited from earlier work
[5] = test system: TCR→p-ERK/p-AKT in T cells; test: in vitro Keytruda effect on TCR signaling in PBMC of breast cancer patients and healthy donors; format: cell-based, human
Method: (§1) In this Example, samples of peripheral blood mononuclear cells (PBMCs) from breast cancer patients and from healthy donors were analyzed for IMR expression and by single cell network profiling, both modulated and unmodulated. Samples were taken before and after treatment in the breast cancer patients. IMR expression was profiled and correlated with immune signaling; differences in immune signaling by SCNP in pre- and post-treatment samples was investigated; the in vitro effects of immune checkpoint inhibitors on signaling in pre- and post-treatment samples was investigated; and the in vitro effects of Fresolimumab on TGFb modulated signaling in pre-treatment samples was profiled.
PBMC samples were collected from 7 healthy donors and 15 breast cancer patients enrolled in a clinical study NCT01401062, evaluating Fresolimumab (anti-TGF □) at 1 or 10 mg/kg IV in combination with radiotherapy (RT). Samples were cryopreserved then prepped and analyzed. Breast cancer donor samples were pre- and post-treatment. Basal expression of immunomodulatory receptors (IMRs) and short term signaling in response to modulation were profiled. […]
In addition, T cell receptor (TCR) signaling was studied using SCNP. The TCR was stimulated, as described elsewhere herein, and downstream readouts, in particular, p-ERK and p-AKT, p-PLCg2, p-CD3z, p-s6, and IkB were measured.

TGFb modulated signaling = test: in vitro Fresolimumab on TGFb modulated signaling in breast cancer samples; format: cell-based, human
Method: as §1

breast cancer patients = test: clinical study NCT01401062, Fresolimumab with radiotherapy in breast cancer: PBMC IMR expression, signaling, response; format: in vivo, human
Method: PBMC samples were collected from 7 healthy donors and 15 breast cancer patients enrolled in a clinical study NCT01401062, evaluating Fresolimumab (anti-TGF □) at 1 or 10 mg/kg IV in combination with radiotherapy (RT). Samples were cryopreserved then prepped and analyzed. Breast cancer donor samples were pre- and post-treatment. Basal expression of immunomodulatory receptors (IMRs) and short term signaling in response to modulation were profiled. Signaling following exposure to in vitro chemotherapeutic agents was also examined. Response to therapy in this trial was poor and therefore associations with clinical reponse was observational only.
Analysis of IMR expression and SCNP (modulated and unmodulated) was performed as detailed in previous Examples and in the specification.

[6] = IL-6 stimulation, CD4+ T cells and monocytes, whole blood

IFN-α
time of peak activation of all 3 STAT proteins ([1]; IFN-α stimulation, all cell subsets): 10 min
signaling resolution in monocytes ([1]; IFN-α, signal sustained in all other subsets): almost complete at 45 minutes
activation of p-Stat4 ([2]; PBMC subsets): detected in T cell subsets (both CD4+ and CD4− T cells), but not in monocytes or B cells
time of peak response for activation of p-Stat4, p-Stat6, p-p38 ([2]; majority of cell types, PBMC): 1 h
time of peak response for activation of p-Stat1, p-Stat3, p-Stat5 ([2]; most cell types, PBMC): 15 min

ipilimumab: fully human monoclonal antibody that blocks cytotoxic T-lymphocyte-associated antigen 4 (CTLA-4)-mediated T-cell suppression
CTLA-4 upregulation [3]: augmented
cytokine production (IL-2, TNF-α) [3]: augmented
proliferation (Cyclin A2) [3]: augmented
IL-15→p-STAT5 signaling in post-treatment samples [4]: diminished
IL-15→p-STAT5 signaling in post-treatment samples ([4]; listed as Ipilimumab): reduced IL-15→p-STAT5 signaling
TCR→p-Erk, TCR→p-CD3z signaling in post-treatment samples ([4]; CD45RA+ but not CD45RA− CD4+ and CD4− subsets, vs healthy donors and pre-treatment melanoma samples): diminished
hazard ratio for death (metastatic melanoma): 0.66

GM-CSF: cytokine modulator
GM-CSF→p-STAT5 signal termination ([1]; monocytes, neutrophils maintained persistent p-STAT5): efficient signal termination in monocytes

Keytruda: checkpoint blockade agent that reduces communication through the PD-1 pathway
effect on TCR signaling (p-ERK and p-AKT readouts) ([5]; PD-1 negative (low PD-1 expression)): no effect
effect on TCR signaling (p-ERK and p-AKT readouts) ([5]; PD-1 positive (high expression) T cells): clear trend toward an increase in signaling; also recorded: increased TCR→AKT and p-ERK

Fresolimumab: anti-TGF, a TGFb inhibitor
in vitro Fresolimumab activity (TGFb modulated signaling): weak
response to therapy (breast cancer patients; Fresolimumab in combination with radiotherapy): poor
PD-L1 expression in NK cells over the course of treatment (breast cancer patients; breast cancer patients' PBMC): trend was observed toward increasing PD-L1 expression
TIM-3 expression in monocytes with treatment (breast cancer patients; breast cancer patients' PBMC): decrease in TIM-3 expression
IMR expression patterns by dose (breast cancer patients; higher dose (1 or 10 mg/kg IV) of Fresolimumab, patient PBMC): trend toward higher IMR expression patterns
TCR mediated signaling by dose (breast cancer patients; higher dose of Fresolimumab, patient PBMC): trend toward reduced TCR mediated signaling

IL-6: cytokine modulator
time at which signal resolution fell to baseline levels ([1]; IL-6, monocytes (CD4+ T cells sustained)): 45 min
time of peak p-STAT1 and p-STAT5 [1, 6]: 10 to 15 min
time of peak p-STAT3 levels [1, 6]: 3 min
IL-6 induced activation in neutrophils ([1]; compared to CD4+ T cells and monocytes): very low
cell subsets showing induced signaling ([1]; whole blood, six cell populations): only observed in CD4+ T cells and monocytes
